Where two headings read alike, the source gives them in different places. Marks after values point to notes of the source that are not given here.
Key:
[1] = tested on: E. acervulina, E. maxima, and C. perfringens; assay type: in vivo, broiler chickens; conditions: Trial III; for Feed Consumption Day 0-21 / Feed Consumption Day 8-21 / Feed Conversion Day 0-21 / Feed Conversion Day 8-21 / Lesion Scores E. acer. / Lesion Scores E. max. / Live Wt. Day 21 / Weight AF/G Treatment (weight adjusted feed conversion) / Weight Gain Day 0-21 / Weight Gain Day 8-21: infected
C. parvum = test: Anti-cryptosporidial activity in MDCK cell cultures (chemiluminescence immunoassay); assay type: cell-based, Cryptosporidium parvum
Description: The enzyme PI-PLC was evaluated for anti-cryptosporidial activity and toxicity at concentrations ranging from 0.001-30 U/ml were performed using 4-day-old Madin-Darby canine kidney (MDCK) cells. Enzyme units were defined as by the method in Example 4 but measured as in Example 9. The preparation of enzyme used was from recombinant Bacillus megaterium. Treatment was initiated 3 hours after infection and continued through 48 hours.
Chemiluminescence Immunoassay. Before infection, oocysts were washed and resuspended in DMEM base with 0.75% sodium taurocholate and incubated for 10 min at 37° C. (You et al., FEMS Microbiol. Letters 136:251-256, 1996; You et al., J. Antimicrobial. Chemother. 41:293-296, 1998). The excystation mixture was diluted with Ultraculture medium, promptly dispensed in plates containing MDCK cells, at 100% confluence, and maintained in Ultraculture medium for 4 days. The inoculum was incubated with the cells for3 h before washing with PBS and replaced with fresh Ultraculture medium with or without test enzyme. Plates were incubated at 37° C., in a 5% CO2 air atmosphere for 48 h. Cultures were washed with PBS and fixed with Bouin's solution.
The fixed plates were washed with TBST buffer (20 mM Tris-HCl (pH 7.5), 150 mM NaCl, 0.05% Tween-20) and blocked with 1% BSA-TBST (TBST buffer containing 1% bovine serum albumin) for 30 min at 25° C. with gentle shaking. Rabbit anti-Cryptosporidium parvum sera (1:200 dilution) was applied to the plates and incubated for 1 hr. After washing with TBST, the samples were sequentially incubated with biotin-labeled goat anti-rabbit IgG and horseradish peroxidase-labeled streptavidin (working dilution, 1:1000, KPL Inc., Gaithersburg, Md.). Enhanced Luminol (4-iodophenol and hydrogen peroxide, Aldrich Chemical Co. Inc., Milwaukee, Wis.) was used as a substrate. The plates were read with an ML3000 Luminometer (Dynatech Lab., Chantilly, Va.) and the relative light units (RLU) were determined. Means of RLU were calculated from 4 replicate wells and all experiments were repeated at least twice.
A second set of experiments were performed to evaluate enzyme specificity. Sporozoites were treated with the enzyme at various concentrations for 45 min and briefly washed. The treated sporozoites were then allowed to infect untreated host cells and develop and reproduce for 48 hours. In a separate experiment, host cells were incubated with the enzyme at various concentrations, washed and infected with untreated sporozoites. As shown below (Table 14), treatment of either sporozoite or host cells with the enzyme results in partial inhibition. A dose dependent inhibition was not observed in this concentration range. This may be due to the short incubation period of the enzyme with host or parasite cells (45 min) or partial or incomplete cleavage of host/parasite receptors. Additionally, other host/parasite receptors are probably involved in infection and account for the growth observed in the host cells.

[2] = PI-PLC 10 U/lb (T5; T7 with mannanase 100 MU/ton)
[3] = PI-PLC 30 U/lb (T6; T8 with mannanase 100 MU/ton; T10 with medication)
[4] = Host cells treated before infection (washed), 0.01 Unit/ml
[5] = Host cells treated before infection (washed), 0.03 Unit/ml
[6] = Host cells treated before infection (washed), 0.1 Unit/ml
[7] = Host cells treated before infection (washed), 0.3 Unit/ml
[8] = Host cells treated before infection (washed), 1 Unit/ml
[9] = Sporozoite treated before infection (45 min, washed), 0.01 Unit/ml
[10] = Sporozoite treated before infection (45 min, washed), 0.03 Unit/ml
[11] = Sporozoite treated before infection (45 min, washed), 0.1 Unit/ml
[12] = Sporozoite treated before infection (45 min, washed), 0.3 Unit/ml
[13] = Sporozoite treated before infection (45 min, washed), 1 Unit/ml
[14] = enzyme added 3 h post infection, 48 h, 0.01 Unit/mL
[15] = enzyme added 3 h post infection, 48 h, 0.03 Unit/mL
[16] = enzyme added 3 h post infection, 48 h, 0.1 Unit/mL
[17] = enzyme added 3 h post infection, 48 h, 0.3 Unit/mL
[18] = enzyme added 3 h post infection, 48 h, 1 Unit/mL

phosphatidylinositol specific phospholipase C [Recombinant PI-PLC]
improvement in AF/G worsening present in the infected control (T3 v. T1) ([1]; infected birds, mannanase 100 MU per ton, PI-PLC in the feed): 33-41% | Feed Consumption Day 0-21 [1, 2]: 10.456^cd | Feed Consumption Day 8-21 [1, 2]: 8.228^abc | Feed Conversion Day 0-21 [1, 2]: 1.560^bc | Feed Conversion Day 8-21 [1, 2]: 1.591b^c | Lesion Scores E. acer. [1, 2]: 1.34^a | Lesion Scores E. max. [1, 2]: 1.19^bc | Live Wt. Day 21 [1, 2]: 0.635^c | Weight AF/G Treatment (weight adjusted feed conversion) [1, 2]: 1.512 | Weight Gain Day 0-21 [1, 2]: 0.594^c | Weight Gain Day 8-21 [1, 2]: 0.477^b | Feed Consumption Day 0-21 [1, 3]: 10.266^d | Feed Consumption Day 8-21 [1, 3]: 7.982^c | Feed Conversion Day 0-21 [1, 3]: 1.572^b | Feed Conversion Day 8-21 [1, 3]: 1.621^ab | Lesion Scores E. acer. [1, 3]: 1.16^ab | Lesion Scores E. max. [1, 3]: 1.13^cd | Live Wt. Day 21 [1, 3]: 0.638^c | Weight AF/G Treatment (weight adjusted feed conversion) [1, 3]: 1.526 | Weight Gain Day 0-21 [1, 3]: 0.597^c | Weight Gain Day 8-21 [1, 3]: 0.483^b | Mean Number of Cryptosporidium per microtiter plate well (C. parvum; [4]): 543.85 | Percent Inhibition (C. parvum; [4]): 56.84% | Mean Number of Cryptosporidium per microtiter plate well (C. parvum; [5]): 522.66 | Percent Inhibition (C. parvum; [5]): 58.53% | Mean Number of Cryptosporidium per microtiter plate well (C. parvum; [6]): 455.88 | Percent Inhibition (C. parvum; [6]): 63.82% | Mean Number of Cryptosporidium per microtiter plate well (C. parvum; [7]): 629.24 | Percent Inhibition (C. parvum; [7]): 50.07% | Mean Number of Cryptosporidium per microtiter plate well (C. parvum; [8]): 393.64 | Percent Inhibition (C. parvum; [8]): 68.76% | Mean Number of Cryptosporidium per microtiter plate well (C. parvum; [9]): 542.15 | Percent Inhibition (C. parvum; [9]): 56.98% | Mean Number of Cryptosporidium per microtiter plate well (C. parvum; [10]): 527.59 | Percent Inhibition (C. parvum; [10]): 58.13% | Mean Number of Cryptosporidium per microtiter plate well (C. parvum; [11]): 536.80 | Percent Inhibition (C. parvum; [11]): 57.40% | Mean Number of Cryptosporidium per microtiter plate well (C. parvum; [12]): 433.04 | Percent Inhibition (C. parvum; [12]): 65.64% | Mean Number of Cryptosporidium per microtiter plate well (C. parvum; [13]): 412.40 | Percent Inhibition (C. parvum; [13]): 67.27% | inhibition (C. parvum; at a concentration of 0.1 U/mL (FIG. 1), enzyme added 3 h after infection for 48 hours): Approximately 50% | concentration range with anti-cryptosporidial activity in vitro (C. parvum; enzyme added 3 h after infection for 48 hours): 0.01-1 U/mL | Mean Number of Cryptosporidium per microtiter plate well (C. parvum; [14]): 1167.78 | Percent Inhibition (C. parvum; [14]): 7.33% | Mean Number of Cryptosporidium per microtiter plate well (C. parvum; [15]): 912.15 | Percent Inhibition (C. parvum; [15]): 27.62% | Mean Number of Cryptosporidium per microtiter plate well (C. parvum; [16]): 595.53 | Percent Inhibition (C. parvum; [16]): 52.74% | Mean Number of Cryptosporidium per microtiter plate well (C. parvum; [17]): 286.5 | Percent Inhibition (C. parvum; [17]): 77.26% | Mean Number of Cryptosporidium per microtiter plate well (C. parvum; [18]): 285.28 | Percent Inhibition (C. parvum; [18]): 77.36%

Source: US7723091B2 (priority 1999, dated 2010)
